According to PMC8459327, “Identification of molecular glues of the SLP76/14-3-3 protein–protein interaction” (RSC Medicinal Chemistry, 2021):
Several values for one entry are separate records, joined by “and”; a condition that tells them apart may be missing. Equal entries are not always repeated. Entries after “also recorded” stand apart in the source; their conditions may differ. Where two headings read alike, the source gives them in different places.

Tests used:
Type in all cases: binding
14-3-3γ/SLP76 [1] = biological target: T1, 14-3-3γ/SLP76 (Homo sapiens, UniProt P61981+Q13094); test: HTRF dose-response assay on 14-3-3γ/SLP76; details: 14-3-3γ-Tb 1 nM, SLP76-AF647 600 nM, 5% DMSO, EC50 estimated from fit
Description: 384-Well logistic plates were prefilled with 2 μL of compounds at 2 mM, 100% DMSO, except for columns 1, 2, 23 and 24. Columns 1, 2 were filled with 2 μL of DMSO while columns 23, 24 were filled with 2 μL of the 14-3-3 inhibitor R18 at 20 μM using a Multidrop Dispenser (ThermoScientific). Next, 40 μL of protein mixture containing Tb-labelled 14-3-3γ at 1 nM and AF647 labelled SLP76 at 600 nM in assay buffer (50 mM Tris pH 7.5, 150 mM NaCl, 5 mM MgCl2, 0.05% v/v Tween-20) were added using a Multidrop Dispenser (ThermoScientific). […] To perform the assay, 30 μL volumes were then transferred using a Biomek FX^P Automated Workstation (Beckman Coulter) into Corning 384-well 3574 assay plates. The plates were incubated at room temperature with gentle shaking for 4 h. Finally, the data were collected on a PHERAstar FSX plate reader (BMG Labtech) with an λex 337 nm, λem 665 nm and 620 nm HTRF filter setting. The data were exported in IDBS ActivityBase (IDBS) where they were normalised setting the R18 negative control as 100% inhibition and the DMSO control as 0%. Negative percentage values were therefore associated with a stabilisation of the 14-3-3γ/SLP76 interaction. The threshold of −20% inhibition (or 20% stabilisation) was chosen to select the hits to follow up. The selected hits were retested on 14-3-3γ/SLP76 and were also tested against an unrelated protein pair (IL-17/receptor) in a similar assay setup. […] All the assays were performed as described above.
(§1) 384 logistic plates were prefilled with 40 μL of compounds at 10 mM, 100% DMSO in column 3. Columns 1, 2 and 4 to 22 were filled with 20 μL of 100% DMSO with a Multidrop Dispenser (ThermoScientific). 2-Fold dilutions of the compounds were carried over from column 3 to 22, with a CyBio FeliX liquid handler (analytikjena). 2 μL of R18 peptide at 20 μM was added to columns 23 and 24 of the Corning 384-well 3574 final assay plates with a Multidrop Dispenser (ThermoScientific). 40 μL of protein mixture, containing Tb labelled 14-3-3γ at 1 nM and AF647 labelled SLP76 at 600 nM in assay buffer (50 mM Tris pH 7.5, 150 mM NaCl, 5 mM MgCl2, 0.05% v/v Tween-20) were added with a Multidrop Dispenser (ThermoScientific) into the Corning 384-well 3574 final assay plates. 2 μL of compounds along with the DMSO control were then transferred with a CyBio FeliX liquid handler (analytikjena) from the 384 logistic plates to the final Corning 384-well 3574 assay plates. […] The dose–response on the first 64 compounds was performed in singlet from a 500 μM top concentration. The repetition on the best 16 compounds was performed in duplicates from a 250 μM top concentration. A dose–response assay on an unrelated 14-3-3ζ/p27 HTRF protein pair was performed as described above. Incubation, data acquisition and normalisation were performed as described above. For EC50 estimation, the data were fitted with a “log(agonist) vs. response (three parameters)” model on GraphPad Prism version 8.1.1 for Windows, GraphPad Software, La Jolla California USA, www.graphpad.com. In the case of duplicates, each data point is the average of a duplicate measurement, standard deviation is reported as error bars.

14-3-3ζ/p27 = 14-3-3ζ/p27 (Homo sapiens, UniProt P46527+P63104); test: HTRF dose-response assay on 14-3-3ζ/p27; details: for Selectivity between 14-3-3γ/SLP76 and 14-3-3ζ/p27 (in words): comparison of HTRF dose-responses
Description: as §1

14-3-3γ/SLP76 [2] = biological target: T1, 14-3-3γ/SLP76; test: Orthogonal SPR assay, compound flowed with SLP76 over immobilised 14-3-3γ; parameters: key to SPR RU (%) mass increase 14-3-3γ/SLP76: Ns: no stabilisation observed in SPR; details: for Stabilisation in SPR (in words): off-rate / mass on chip versus runs without compound; for SPR RU (%) mass increase 14-3-3γ/SLP76: percentage of SLP76 remained on the chip after the dissociation phase (+240 s)
Description: Of the 16 hit compounds 13 were tested in an orthogonal SPR assay in which each compound was flowed with SLP76 over 14-3-3γ immobilised on the chip. Runs at different concentrations of compound were compared to the runs in absence of compound. […] The effect of the compounds on 14-3-3γ/SLP76 was measured by calculating the percentage of SLP76 remained on the chip after the dissociation phase and immediately before: RU (%) = RU 5 s before dissociation/RU +240 s after dissociation. Dose–response curves were extrapolated from those sensorgrams plotting the RU (%) mass increase over the increase in compound concentrations.
SPR experiments were performed on a Biacore T200 (Cytiva). The Sensor Chip NTA was validated as previously reported by Soini et al.[63] A DMSO tolerance at 2% and 5% was performed in the same way (Fig. S1 ^†).
For compounds testing, the compounds were preincubated with SLP76, in final DMSO concentration of 5%. The compounds were tested at a single concentration of 100 μM and at multiple concentrations following a 3-fold dilution from a top concentration of 100 μM with SLP76 at the saturation concentration of 250 nM. A second set of experiments were performed at multiple concentrations of compound following a 3-fold dilution from a top concentration of 200 μM with SLP76 around the KD concentration of 40 nM. The SLP76/compound mixtures were flowed over the immobilised 14-3-3γ at 30 μL min^−1 for 180 s before allowing dissociation for 5 minutes. After every cycle, the chip was washed with EDTA and Ni^2+ and 14-3-3γ reinjected for the next cycle. The compound effects were measured by calculating the percentage of SLP76 remained on the chip after the dissociation phase and right before: RU (%) = RU 5 s before dissociation/RU +240 s after dissociation. RU response points relative to +240 s after dissociation were also plotted and an apparent EC50 was estimated. The data were fitted with a “One site – specific” model on GraphPad Prism version 8.1.1 for Windows, GraphPad Software, La Jolla California USA, www.graphpad.com.

[3] = stabilisation, read-out: HTRF EC50 14-3-3γ/SLP76
[4] = stabilisation, same FRET pair, EC50 estimated from fit, read-out: HTRF EC50 14-3-3ζ/p27

T1 sequence (Q13094 356-533): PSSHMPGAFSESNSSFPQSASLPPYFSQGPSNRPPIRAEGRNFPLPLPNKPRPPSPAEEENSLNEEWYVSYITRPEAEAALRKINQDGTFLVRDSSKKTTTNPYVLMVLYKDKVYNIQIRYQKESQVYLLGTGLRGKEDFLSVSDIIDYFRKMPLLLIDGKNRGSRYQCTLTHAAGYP
T1 sequence (P61981 whole entry): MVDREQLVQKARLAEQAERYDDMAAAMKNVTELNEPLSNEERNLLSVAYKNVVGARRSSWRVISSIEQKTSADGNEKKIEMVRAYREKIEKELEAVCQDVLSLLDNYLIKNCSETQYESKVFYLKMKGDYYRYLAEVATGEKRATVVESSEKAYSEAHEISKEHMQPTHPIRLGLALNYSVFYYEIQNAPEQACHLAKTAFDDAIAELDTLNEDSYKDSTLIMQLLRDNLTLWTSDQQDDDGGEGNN
Sequence of 14-3-3ζ/p27 (P63104 whole entry): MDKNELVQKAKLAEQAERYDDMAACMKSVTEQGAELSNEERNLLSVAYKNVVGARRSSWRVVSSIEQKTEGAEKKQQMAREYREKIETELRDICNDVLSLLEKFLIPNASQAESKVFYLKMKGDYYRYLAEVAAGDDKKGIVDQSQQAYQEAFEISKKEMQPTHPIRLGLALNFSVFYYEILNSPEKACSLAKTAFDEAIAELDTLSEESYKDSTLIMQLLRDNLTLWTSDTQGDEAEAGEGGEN
Sequence of 14-3-3ζ/p27 (P46527 whole entry): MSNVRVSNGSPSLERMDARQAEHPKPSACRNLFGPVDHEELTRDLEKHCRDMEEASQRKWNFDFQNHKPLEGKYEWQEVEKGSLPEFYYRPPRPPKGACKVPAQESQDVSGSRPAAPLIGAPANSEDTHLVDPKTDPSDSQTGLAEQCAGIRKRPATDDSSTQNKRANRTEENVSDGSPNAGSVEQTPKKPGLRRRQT

| SMILES | EC50 (14-3-3γ/SLP76 [1]; [3]) | Stabilisation of 14-3-3ζ/p27 in HTRF (in words) (14-3-3ζ/p27) | Selectivity between 14-3-3γ/SLP76 and 14-3-3ζ/p27 (in words) (14-3-3ζ/p27) | EC50 (14-3-3ζ/p27; [4]) [µM] | Stabilisation in SPR (in words) (14-3-3γ/SLP76 [2]) | SPR RU (%) mass increase 14-3-3γ/SLP76 (14-3-3γ/SLP76 [2]) | EC50 (14-3-3γ/SLP76 [1]; HTRF EC50 14-3-3γ/SLP76, stabilisation) [µM] | EC50 (14-3-3ζ/p27) [µM] | Selectivity for 14-3-3ζ/p27 over 14-3-3γ/SLP76 (14-3-3ζ/p27; ratio of HTRF EC50s) [fold] |
| --- | --- | --- | --- | --- | --- | --- | --- | --- | --- |
| O=C1OC[C@@H]2CCN(Cc3ccccc3)Cc3ccccc3N12 [Compound 1, (6S)-9-benzyl-4-oxa-2,9-diazatricyclo[9.4.0.02,6]pentadeca-1(11),12,14-trien-3-one] | 19.1 ± 7.7 µM | no observed stabilisation | selective for the 14-3-3γ/SLP76 interaction | > 250 | orthogonally confirmed and equipotent by SPR | 66.4% |  |  |  |
| CC(C)N1CC[C@H]2COC(=O)N2c2cc(F)ccc2C1 [Compound 2, (6S)-14-fluoro-9-propan-2-yl-4-oxa-2,9-diazatricyclo[9.4.0.02,6]pentadeca-1(15),11,13-trien-3-one] | 18.6 ± 5.5 µM | no observed stabilisation | selective for the 14-3-3γ/SLP76 interaction | > 250 | orthogonally confirmed and equipotent by SPR | 67.6% |  |  |  |
| COc1ccc(C(=O)N2C[C@@H]3CN(CCO3)C(=O)[C@@H]3C[C@@H](CN3Cc3ccc4c(c3)OCO4)NC(=O)C[C@@H]3O[C@H](C2)[C@@H](O)[C@H]3O)cc1 [Compound 4, (3S,6S,10S,11R,12S,13R,17R)-4-(1,3-benzodioxol-5-ylmethyl)-11,12-dihydroxy-15-(4-methoxybenzoyl)-18,22-dioxa-1,4,7,15-tetrazatetracyclo[15.3.1.13,6.110,13]tricosane-2,8-dione] | 17.4 ± 4.9 µM |  | selective for the 14-3-3γ/SLP76 system | > 250 | orthogonally confirmed by SPR; also recorded: orthogonally confirmed in the SPR assay | 57.1% |  |  |  |
| CC1=CCC2COC(C[N+]3(C)CCCCC3)C1C2 (centres unmarked) [Compound 5, 1-methyl-1-[(8-methyl-3-oxabicyclo[3.3.1]non-7-en-2-yl)methyl]piperidin-1-ium] | 71.1 ± 23.9 µM |  | selective over 14-3-3ζ/p27 | > 250 | no observable stabilisation effect | Ns ^d |  |  |  |
| COc1ccc2c(c1)[C@]1(CC[N+](C)(C)CC(=O)OC(C)(C)C)CCCC[C@@H]1C=C2 [Compound 6, 2-[(4aS,10aR)-6-methoxy-2,3,4,10a-tetrahydro-1H-phenanthren-4a-yl]ethyl-dimethyl-[2-[(2-methylpropan-2-yl)oxy]-2-oxoethyl]azanium] |  |  | selective over 14-3-3ζ/p27 |  | no observable stabilisation effect | Ns ^d | 33.5 ± 10.7 | > 250 |  |
| Fc1ccc(OCc2nn3c(Cn4cnc5ccccc54)nnc3s2)cc1 [Compound 8, 3-(benzimidazol-1-ylmethyl)-6-[(4-fluorophenoxy)methyl]-[1,2,4]triazolo[3,4-b][1,3,4]thiadiazole] | 69.1 ± 22.6 µM |  | weak and equipotent stabiliser of both the 14-3-3γ/SLP76 and 14-3-3ζ/p27 systems | 53.9 ± 17.1 | orthogonally confirmed by SPR | 61.2% |  |  |  |
| COc1ccccc1-c1nnc2scnn12 [Compound 9, 3-(2-methoxyphenyl)-[1,2,4]triazolo[3,4-b][1,3,4]thiadiazole] | 24.5 ± 5.8 µM |  | modest level of selectivity in stabilising 14-3-3ζ/p27 over 14-3-3γ/SLP76 | 5.8 ± 2.2 | orthogonally confirmed by SPR | 58.7% |  |  |  |
| CC1=Nn2c(nnc2-c2ccoc2C)SC1 [Compound 10, 6-methyl-3-(2-methylfuran-3-yl)-7H-[1,2,4]triazolo[3,4-b][1,3,4]thiadiazine] | 70.1 ± 8.7 µM |  | modest level of selectivity in stabilising 14-3-3ζ/p27 over 14-3-3γ/SLP76 | 16.5 ± 10.6 | no observable stabilisation | Ns ^d |  |  |  |
| Cc1ccc(-c2ccc3c(n2)C(=N)NC3CCc2ccc(O)cc2)o1 (centres unmarked) [Compound 11, 4-[2-[7-imino-2-(5-methylfuran-2-yl)-5,6-dihydropyrrolo[3,4-b]pyridin-5-yl]ethyl]phenol] | 29.7 ± 21.8 µM |  |  | 129 ± 70.5 |  |  |  |  |  |
| CC(C)CNC(=O)c1ccc2c(c1)nc1n2CCN(C(C)C)C1=O [Compound 12, N-(2-methylpropyl)-1-oxo-2-propan-2-yl-3,4-dihydropyrazino[1,2-a]benzimidazole-8-carboxamide] | 3.2 µM and 3.8 µM |  |  | 0.43 ± 0.37 | orthogonally confirmed by SPR | 67.4% |  |  | ~9 |
| S=c1[nH]nc(Cn2nnc3ccccc32)o1 [Compound 13, 5-(benzotriazol-1-ylmethyl)-1,3,4-oxadiazole-2-thiol] | 4.9 ± 1.1 µM |  |  | > 250 |  | Ns ^d |  |  |  |
| CC(=O)CSc1nc2c(c(=O)[nH]c(=O)n2C)n1Cc1cccc(C)c1 [Compound 15, 3-methyl-7-[(3-methylphenyl)methyl]-8-(2-oxopropylsulfanyl)purine-2,6-dione] | 17.1 ± 5.2 µM |  |  | 11.6 ± 6.1 |  |  |  |  |  |
| O=C(c1ccc(Cl)cc1)n1c(Cn2nnc(-c3cccc4ccccc34)n2)n[nH]c1=S [Compound 16, (4-chlorophenyl)-[3-[(5-naphthalen-1-yltetrazol-2-yl)methyl]-5-sulfanylidene-1H-1,2,4-triazol-4-yl]methanone] | 1.2 ± 0.7 µM |  |  | 80.6 ± 53.4 |  |  |  |  |  |
